What was measured:
[1] = test system: hESCs (hESC line RC-0913); test: RT-qPCR of retinal development markers during differentiation of hESCs; type: cell-based, human
Experimental: (§1) Clinical-grade hESC line RC-0913, was used and cultured in feeder free conditions using mTeSR™ Medium (StemCell technologies) and hESC qualified Matrigel (Corning). Cells were banked at passage 36 and used for RPE differentiation between passage 38 and 45. Cells were plated at 5×10^4 cells per cm^2 and grown until they reached 80 percent of confluence before switching to a differentiation medium composed of Dulbecco's modified Eagle's medium (high glucose, Thermo Fisher Scientific) supplemented with 50 μM β-mercaptoethanol, 1× minimum essential medium-nonessential amino acids (Thermo Fisher Scientific) and 20% (D0-D42) or 4% (after passage 1) of knockout serum replacement (KSR, Thermo Fisher Scientific). During all the differentiation process the medium was changed every 2/3 days.
(§2) For the referred “directed differentiation” protocol, 10 mM Nicotinamide (Sigma), 100 ng/ml Activin A
(§3) (Peprotech) and 3 μM CHIR99021 (Tocris) were added sequentially to the basal differentiation medium at specific time points (FIG. 2A).
Total RNAs were extracted using RNAeasy Plus Mini kit (Qiagen) and cDNA synthesized using SuperScript III (Invitrogen). Quantitative real-time RT-PCR was performed using a Quant Studio 12K flex (Applied Biosystems) with HiGreen qPCR Master Mix (Thermo Fisher Scientific). Experiments were performed with at least three technical replicates per plate and expression levels were normalized to 18S. Relative expression compared to hESCs gene expression levels were determined by calculating the 2-ΔΔCt.

[2] = test system: hESCs (hESC line RC-0913); test: Immunostaining of marker proteins during differentiation of hESCs; type: cell-based, human
Experimental: as §1, §2, §3
hESC-RPE cells were grown on Matrigel-coated 96 or 24-well plates. Adherent cells were fixed in 4% PFA for 10 min at room temperature (RT) and rinsed 3 times with PBS. After 30 min in blocking solution (10% FBS in 0.1% Triton PBS) at RT, cells were incubated with primary antibodies overnight at 4° C. After 3 washes in PBS, appropriate Alexa Fluor-conjugated secondary antibodies (Invitrogen) were added at 1:500 for 1 h at RT in presence of DAPI (Invitrogen).
Images were acquired with an Axio observer Z1 microscope (Zeiss) with a Hamamatsu ORCA-flash 4.0 camera and a spinning disk unit (Yokogawa CSU-X1-A1N-E; Camera evolve, EMCCD 512) with Metamorph software or with a LSM-800 confocal microscope (Zeiss) with Zen software. Images were exported, analyzed and processed with Fiji software. […] The quantification of pigmented areas was performed after manual delimitation of culture dish areas using Fiji software. Pictures were then binarized to 8-bit images using a fixed intensity threshold and the black area fraction was measured (not herein shown).

[3] = CHIR99021 from day 14 to day 35-42

## NC(=O)c1cccnc1 [Nicotinamide]
[1]; Nicotinamide 10 mM, first 7 days of differentiation, compared to spontaneous protocol, p<0.01
  transient expression of early eye field transcription factors SIX3 and RAX (mRNA): significantly enhanced
[1]; Nicotinamide 10 mM, first 7 days, compared to spontaneous protocol, p<0.01
  expression of pluripotency marker NANOG (mRNA): higher decrease
[2]; day 7 after Nicotinamide treatment, n=3
  cells co-expressing LHX2 and PAX6 proteins: 86.8%±4.3%

## Cc1c[nH]c(-c2cnc(NCCNc3ccc(C#N)cn3)nc2-c2ccc(Cl)cc2Cl)n1 [CHIR99021]
[1]; [3]
  MITF expression (mRNA): continuous increased expression
  VSX2 mRNA levels: acute decreased expression
[2]; day 21, CHIR99021 from day 14
  MITF+ cells: 87.5%±12.5%
  VSX2 positive cells: absence

B1: Activin A: member of TGF β superfamily, second differentiating agent, 100 ng/ml (Peprotech) (protein, UniProt P08476 311-426, looked up)
Inhibin beta A chain: GLECDGKVNICCKKQFFVSFKDIGWNDWIIAPSGYHANYCEGECPSHIAGTSGSSLSFHSTVINHYRMRGHSPFANLKSCCVPTKLRPMSMLYYDDGQNIIKKDIQNMIVEECGCS
modifications: Inhibin beta A chain
[1]; Activin A day 7 to day 14
  RAX and SIX3 mRNA levels: decreased
[1]; Activin A day 7 to day 14, compared to spontaneous differentiation, p≤0.05
  expression of optic vesicle transcription factors VSX2 and MITF (mRNA): significantly increased

From patent publication US12618045B2, “Automated method for preparing retinal pigment epithelium cells” (CENTRE D'ETUDE DES CELLULES SOUCHES (CECS), priority 2019, dated 2026)
